How the values were obtained:
[1] = pH 7.4; Sueda et al.; cited from earlier work
[2] = tested on: rats contaminated with ^241Am; assay: Radionuclide decorporation efficacy study in rats contaminated with 241Am (Example 10): excretion, tissue content, liver and skeleton burden; type: in vivo, SD rats
Protocol: All animal studies were conducted according to a protocol approved by the University of North Carolina at Chapel Hill Institutional Animal Care and Use Committee (IACUC). Ten-week-old adult female SD rats weighing from 200 to 300 g were used in these studies (Charles River Labs, Raleigh, N.C.). Food and water were given ad libitum. The animal room was kept at a controlled temperature (23° C.) and light cycle (light exposure from 8 AM to 8 PM). For the duration of the study, the rats were housed in metabolic cages individually with daily urine and feces collection until euthanasia on Day 7.
To evaluate the efficacy of transdermal delivery of the C2E5 nonaqueous gel, a radionuclide decorporation efficacy study was conducted in rats contaminated with ^241Am. Adult female SD rats were anesthetized with 2-3% isoflurane. Dorsal skin between the cervical vertebrae and anterior thoracic vertebrae was clipped with caution before all animals were contaminated with [^241Am]-Americium nitrate solution (250 nCi, 0.1 mL) via an i.m. injection in anterior thigh muscle. The C2E5 nonaqueous gel was applied at dose of 1000 mg/kg using a cotton swap to a 6 cm^2 (2 cm×3 cm) area of the clipped dorsal region immediately after contamination. A jacket with plastic dorsal insert (VWR International) was placed on the rat to protect the gel application region. The mass of C2E5 gel applied was recorded for each animal to permit the actual dose determination. The animals were housed in metabolic cages individually after C2E5 treatment and were euthanized 7 days after contamination. Positive and negative controls included animals administered Ca-DTPA intravenously and animals without any treatment. The animals were observed once daily and their body weights recorded at pre-dose and prior to necropsy, Urine and feces were collected daily until euthanasia, when the liver, kidneys, both femurs and the muscle tissue from around the injection site were also collected. Cage washes were collected at the end of each experiment. As ˜35% of the decay of ^241Am is associated with photon emissions of 59.7 keV, ^241Am present in samples was quantified using a gamma counter (2470 Wizard 2, Perkin Elmer). The samples were counted for one minute using a 40-80 keV energy detection window and were background-corrected. Additionally, ^241Am activity was quantified in 2×0.1 mL aliquots of the dosing solution. For all samples, ^241Am content was expressed as a percentage of the initial dose.
where % ID represents the percent of injected dose. Where data for both femurs were available, an estimate of the total skeletal burden was made using the method of Volf with modification in which the counts in the contra-lateral femur were multiplied by 19 and added to the counts in the ipsi-lateral femur. The modification for the literature method was due to higher ^241Am content in ipsi-lateral femur as a result of i.m. injection in anterior thigh muscle.
Statistically significant differences among groups were determined using one-way ANOVA with Tukey's post hoc comparison. All measurements are expressed as mean±standard deviation (S.D.). The level of significance was set at p<0.05.

[3] = In vitro percutaneous permeation of C2E5 nonaqueous gel spiked with [14C]-C2E5; type: in vitro ADME, Sprague-Dawley (SD) rat
Protocol: An in vitro permeation study was carried out using a vertical diffusion cell system equipped with an autosampler (Hanson Microette Autosampling System, Hanson Research Co., USA). The area for permeation was 1.767 cm^2, and the receiver compartment volume was 7 mL. The experiments were run at 32° C. and stirred magnetically at 400 rpm. The receiver medium was 0.1M phosphate buffer (pH 7.4). SD rat skin samples were prepared by harvesting dorsal skin samples from freshly euthanized (<1 h) SD rats (n=9, 200-300 g). The skin was shaved and the subcutaneous fat tissue was carefully peeled from the dermis layer to remove potential interference due to high levels of esterase activity in subcutaneous tissue. The processed skin samples were inspected visually for membrane integrity. The qualified skin samples were stored at −20° C. until use. The SD rat skin samples were first allowed to thaw for at least 1 h in the receiver medium, and then mounted and clamped between the receiver and donor compartments of the diffusion cells. […] ([^14C]-C2E5; 50 mCi/mmol) labeled at carbon-1 (carbonyl carbon) was purchased from American Radiolabeled Chemicals, Inc., St. Louis, Mo.).
Collected samples were dispensed into Ultima Gold™ scintillation cocktail at a ratio of 100 μL:10 mL and assayed directly for radioactivity by liquid scintillation counting (LSC) using a Packard TriCarb 3100TR (PerkinElmer Life and Analytical Sciences) with automatic quench correction. Samples were counted for 10 min or until a 5% confidence level was achieved. The samples were subsequently assayed for intact C2E5 and its metabolites using HPLC-FSA. The cumulative releases of C2E5 and its metabolites were plotted as a function of time.
Fick's law (Equation 4) has been used as a simple model to describe the steady-state diffusion of drug through the skin:
where Jss=steady-state flux (mol/hr); D=drug diffusivity (cm^2/hr); h=membrane thickness (cm); Ksc/veh=drug's stratum corneum-vehicle partition coefficient; Cveh=drug concentration (mg/cm^3) in the vehicle; and A=surface area (cm^2). The cumulative amount of C2E5 and its metabolites permeated through the SD rat skin versus time is presented in FIG. 1, The overall concentrations of C2E5 and its metabolites in receiver compartment at different time points were calculated based on Equation 5.
The concentrations of C2E5 and its metabolites in the collected samples from the receiver compartment at different time points were analyzed by HPLC-FSA.

[4] = In vitro C2E5 metabolism studies using SD rat skin S9 fractions; type: in vitro ADME
[5] = Equilibrium solubility of C2E5 in aqueous media of varying pH; type: physicochemical; conditions: aqueous buffer, thermodynamic from solid
[6] = rats, seven days following a single dose, Ca-DTPA 14 mg/kg i.v., C2E5 1000 mg/kg transdermal
[7] = seven days after single dose, Ca-DTPA 14 mg/kg i.v., C2E5 1000 mg/kg transdermal gel
[8] = seven days, 1000 mg/kg transdermal

CCOC(=O)CN(CCN(CC(=O)OCC)CC(=O)OCC)CCN(CC(=O)OCC)CC(=O)OCC [Formulation C2E5, penta-substituted ethyl ester of DTPA]
solubility of C2E5 [1]: 2200 µg/mL | Skeleton Burden (% of ID) ([2]; contra-lateral femur × 19 + ipsi-lateral femur, rats, seven days following a single dose, Ca-DTPA 14 mg/kg i.v. (n = 3), C2E5 1000 mg/kg transdermal): 9.6 ± 0.9 % of ID | Ipsi-lateral femur content of 241Am ([2]; rats, seven days following a single dose, Ca-DTPA 14 mg/kg i.v. (one animal excluded), C2E5 1000 mg/kg transdermal): 0.54 ± 0.10 % of ID of ^241Am | % of Reduction over control (liver burden) [2, 6]: 49.1% | % of Reduction over control (skeleton burden) [2, 6]: 41.1% | Contra-lateral femur content of 241Am [2, 6]: 0.48 ± 0.05 % of ID of ^241Am | Kidney content of 241Am [2, 6]: 0.63 ± 0.07 % of ID of ^241Am | Liver Burden (% of ID) [2, 6]: 8.4 ± 2.0 % of ID | Liver content of 241Am [2, 6]: 8.4 ± 2.0 % of ID of ^241Am | Muscle-contra content of 241Am [2, 6]: 0.0078 ± 0.0017 % of ID of ^241Am per gram of muscle-contra | Muscle-ipsi content of 241Am [2, 6]: 44.3 ± 2.0 % of ID of ^241Am | Pelt at injection site content of 241Am [2, 6]: 0.84 ± 0.66 % of ID of ^241Am | Total decorporation (% of ID of 241Am) [2, 6]: 26.2 ± 2.7 % of ID of ^241Am | reduction of liver burden of ^241Am versus control group ([2]; seven days after single dose, Ca-DTPA 14 mg/kg i.v., C2E5 1000 mg/kg transdermal): 49.1% | % of Enhanced decorporation over control [2, 7]: 279.9% | Cumulative excretion of ^241Am In feces [2, 7]: 7.8 ± 1.2 % of ID | Cumulative excretion of ^241Am In urine [2, 7]: 18.4 ± 1.8 % of ID | Cumulative excretion of ^241Am Total [2, 7]: 26.2 ± 2.7 % of ID | ^241Am burden in the ipsi-lateral femur versus no-treatment control [2, 8]: statistically significant reduction | skeleton burden of ^241Am versus control group [2, 8]: statistically significant reduction | cumulative amount of C2E5 and its metabolites permeated through the rat skin ([3]; at 8 h): 1.98 μmol/cm^2 | initially applied C2E5 dose permeated through the rat skin (C2E5 and its metabolites) ([3]; at 8 h, gel 6% EC10, 25% C2E5, 69% MIGLYOL 840): ~10% | cumulative amount of C2E5 and its metabolites permeated through the rat skin ([3]; at 23 h): 3.55 μmol/cm^2 | diffusional lag time through SD rat skin ([3]; gel 6% EC10, 25% C2E5, 69% MIGLYOL 840): 0.33 h | Jss per unit area through SD rat skin ([3]; steady-state between 2 h and 7 h, gel 6% EC10, 25% C2E5, 69% MIGLYOL 840): 0.276 μmol/cm^2/h | conversion of C2E5 to DTPA [4]: only minimally observed | solubility thermodynamic ([5]; pH 5.7, room temperature): 20300 µg/mL | solubility thermodynamic ([5]; pH 7.1, room temperature): 3000 µg/mL

Source: patent US20140243411A1 (priority 2011, published 2014)
